In US20240092835A1, “NOVEL PEPTIDES CAPABLE OF ALTERING NK CELL ACTIVITY” (Massachusetts Institute of Technology, priority 2022, published 2024):

Columns and labels:
[1] = system: NKG2A+/NKG2C− NK cells; assay: NK cell activation markers in NKG2A+/NKG2C- NK cells incubated with peptide and K562 expressing HLA-E (inhibition); type: cell-based, human; settings: for percentage of CCL3+ NK cells / percentage of CD107a+ NK cells / percentage of IFNG+ NK cells / percentage of TNF+ NK cells: NKG2A+/NKG2C- NK cells, K562/HLA-E
Experimental: (§1) A human immortalized myelogenous leukemia cell line (K562), which expresses HLA-E was incubated with novel peptides (Table 1) derived from the human proteome or human cytomegalovirus proteome. […] Controls assessments were also performed using NKG2A−/NKG2C− cells (Tables 10-13). Inhibition was indicated by a decrease in percent cells positive for cell surface markers, while activation was indicated by an increase in percent cells positive for cell surface markers.

[2] = system: NKG2A−/NKG2C+ NK cells; assay: NK cell activation markers in NKG2A-/NKG2C+ NK cells incubated with peptide and K562 expressing HLA-E (activation); type: cell-based, human; settings: for effect on NKG2A−/NKG2C+ NK cell activation (in words): K562 expressing HLA-E, CD107a, IFNG, TNF, CCL3; for percentage of CCL3+ NK cells / percentage of CD107+ NK cells / percentage of IFNG+ NK cells / percentage of TNF+ NK cells: NKG2A-/NKG2C+ NK cells, K562/HLA-E
Experimental: as §1

[3] = system: NKG2A−/NKG2C− NK cells; assay: NK cell activation markers in control NKG2A-/NKG2C- NK cells incubated with peptide and K562 expressing HLA-E; type: cell-based, human
Experimental: as §1

[4] = biological target: T1, HLA-E (Homo sapiens, UniProt P13747); assay: HLA-E surface stabilization assay with RMA-S/HLA-E cells; type: cell-based; settings: 30 μM peptide, 16 hours, anti-HLA-E antibody
T1 construct: expressed in transfected cells; host or cells: RMA-S/HLA-E cells (antigen processing-defective lymphoma cell line)
Experimental: HLA-E surface expression was assessed by measuring geometric mean fluorescence intensity (GeoMFI) in RMA-S cells following immunofluorescence staining with an anti-HLA-E antibody (Table 14). Increased GeoMFI was indicative of increased HLA-E surface expression stability following novel peptide exposures (FIG. 3).

T1 sequence (P13747 22-358): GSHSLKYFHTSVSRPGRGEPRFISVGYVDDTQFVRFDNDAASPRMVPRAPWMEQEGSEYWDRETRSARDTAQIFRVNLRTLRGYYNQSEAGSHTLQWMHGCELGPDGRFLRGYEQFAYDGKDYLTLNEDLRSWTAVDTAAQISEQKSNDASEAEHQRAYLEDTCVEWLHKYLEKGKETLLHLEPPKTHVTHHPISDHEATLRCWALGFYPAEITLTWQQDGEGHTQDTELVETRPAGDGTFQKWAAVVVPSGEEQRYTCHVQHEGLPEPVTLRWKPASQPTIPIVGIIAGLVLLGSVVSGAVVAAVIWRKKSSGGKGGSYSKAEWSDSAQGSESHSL
T1 sequence (P61769 21-119 partner): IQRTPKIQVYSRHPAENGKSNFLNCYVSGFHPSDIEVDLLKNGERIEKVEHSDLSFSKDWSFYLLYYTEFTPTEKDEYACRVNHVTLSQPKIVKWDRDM

With “TLPERTLYL [human7, peptide ECEL1 269-277 derived from the human proteome]” the “effect on NKG2A+/NKG2C− NK cell inhibition (in words)” value ([1]; K562 expressing HLA-E, CD107a, IFNG, TNF, CCL3) was “strong inhibitory”, the “percentage of CCL3+ NK cells” value ([1]; Trial 1) was 1.37% and the “percentage of CD107a+ NK cells” value ([1]; Trial 1) was 0.52%. The “percentage of IFNG+ NK cells” value ([1]; Trial 1) was 0.13%, the “percentage of TNF+ NK cells” value ([1]; Trial 1) was 0.05% and the “percentage of CCL3+ NK cells” value ([1]; Trial 2) was 1.85%. The “percentage of CD107a+ NK cells” value ([1]; Trial 2) was 0.72%, the “percentage of IFNG+ NK cells” value ([1]; Trial 2) was 0.21% and the “percentage of TNF+ NK cells” value ([1]; Trial 2) was 0.11%. For the same sequence, the “percentage of CCL3+ NK cells” value ([1]; Trial 3) was 1.62%, the “percentage of CD107a+ NK cells” value ([1]; Trial 3) was 0.59% and the “percentage of IFNG+ NK cells” value ([1]; Trial 3) was 0.49%. The “percentage of TNF+ NK cells” value ([1]; Trial 3) was 0.1%, the “percentage of CCL3+ NK cells” value ([1]; Trial 4) was 0.64% and the “percentage of CD107a+ NK cells” value ([1]; Trial 4) was 0.71%. For the same sequence, the “percentage of IFNG+ NK cells” value ([1]; Trial 4) was 0.16%, the “percentage of TNF+ NK cells” value ([1]; Trial 4) was 0.08% and the “percentage of CCL3+ NK cells” value ([1]; Trial 5) was 1.26%. The “percentage of CD107a+ NK cells” value ([1]; Trial 5) was 0.64%, the “percentage of IFNG+ NK cells” value ([1]; Trial 5) was 0.28% and the “percentage of TNF+ NK cells” value ([1]; Trial 5) was 0.18%. For the same sequence, the “percentage of CCL3+ NK cells” value ([1]; Trial 6) was 2.68%, the “percentage of CD107a+ NK cells” value ([1]; Trial 6) was 1.96% and the “percentage of IFNG+ NK cells” value ([1]; Trial 6) was 0.67%. For the same sequence, the “percentage of TNF+ NK cells” value ([1]; Trial 6) was 0.38%, the “effect on NKG2A−/NKG2C+ NK cell activation (in words)” value ([2]; listed as SEQ ID NO. 11) was “strong activating effects” and the “effect on NKG2A−/NKG2C+ NK cell activation (in words)” value ([2]; listed as h7) was “strong inhibitory and activating effects”. The “percentage of CCL3+ NK cells” value ([2]; Trial 1) was 77%, the “percentage of CD107+ NK cells” value ([2]; Trial 1) was 76.2% and the “percentage of IFNG+ NK cells” value ([2]; Trial 1) was 66.6%. The “percentage of TNF+ NK cells” value ([2]; Trial 1) was 54.5%, the “percentage of CCL3+ NK cells” value ([2]; Trial 2) was 92.4% and the “percentage of CD107+ NK cells” value ([2]; Trial 2) was 89.5%. The “percentage of IFNG+ NK cells” value ([2]; Trial 2) was 87.3%, the “percentage of TNF+ NK cells” value ([2]; Trial 2) was 79.9% and the “percentage of CCL3+ NK cells” value ([2]; Trial 3) was 87.5%. For the same sequence, the “percentage of CD107+ NK cells” value ([2]; Trial 3) was 87.7%, the “percentage of IFNG+ NK cells” value ([2]; Trial 3) was 79.8% and the “percentage of TNF+ NK cells” value ([2]; Trial 3) was 70.1%. For the same sequence, the “percentage of CCL3+ NK cells” value ([2]; Trial 4) was 61.5%, the “percentage of CD107+ NK cells” value ([2]; Trial 4) was 63.2% and the “percentage of IFNG+ NK cells” value ([2]; Trial 4) was 54.1%. For the same sequence, the “percentage of TNF+ NK cells” value ([2]; Trial 4) was 47.8%, the “percentage of CCL3+ NK cells” value ([2]; Trial 5) was 77.3% and the “percentage of CD107+ NK cells” value ([2]; Trial 5) was 76.5%. The “percentage of IFNG+ NK cells” value ([2]; Trial 5) was 70%, the “percentage of TNF+ NK cells” value ([2]; Trial 5) was 66.1% and the “percentage of CCL3+ NK cells” value ([2]; Trial 6) was 55.6%. The “percentage of CD107+ NK cells” value ([2]; Trial 6) was 55.3%, the “percentage of IFNG+ NK cells” value ([2]; Trial 6) was 45.4% and the “percentage of TNF+ NK cells” value ([2]; Trial 6) was 37.8%. For the same sequence, the “percentage CCL3+ NK cells” value ([3]; Trial 1) was 30.7%, the “percentage CD107+ NK cells” value ([3]; Trial 1) was 21.8% and the “percentage TNF+ NK cells” value ([3]; Trial 1) was 4.13%. For the same sequence, the “percentage of IFNG+ NK cells” value ([3]; Trial 1) was 13.3%, the “percentage CCL3+ NK cells” value ([3]; Trial 2) was 49.5% and the “percentage CD107+ NK cells” value ([3]; Trial 2) was 27.4%. The “percentage TNF+ NK cells” value ([3]; Trial 2) was 7.88%, the “percentage of IFNG+ NK cells” value ([3]; Trial 2) was 23.4% and the “percentage CCL3+ NK cells” value ([3]; Trial 3) was 47%. The “percentage CD107+ NK cells” value ([3]; Trial 3) was 41.8%, the “percentage TNF+ NK cells” value ([3]; Trial 3) was 14.2% and the “percentage of IFNG+ NK cells” value ([3]; Trial 3) was 34.9%. For the same sequence, the “percentage CCL3+ NK cells” value ([3]; Trial 4) was 27.4%, the “percentage CD107+ NK cells” value ([3]; Trial 4) was 24% and the “percentage TNF+ NK cells” value ([3]; Trial 4) was 7.92%. The “percentage of IFNG+ NK cells” value ([3]; Trial 4) was 16.4%, the “percentage CCL3+ NK cells” value ([3]; Trial 5) was 22.9% and the “percentage CD107+ NK cells” value ([3]; Trial 5) was 17.2%. The “percentage TNF+ NK cells” value ([3]; Trial 5) was 5.21%, the “percentage of IFNG+ NK cells” value ([3]; Trial 5) was 12.7% and the “percentage CCL3+ NK cells” value ([3]; Trial 6) was 22.6%. For the same sequence, the “percentage CD107+ NK cells” value ([3]; Trial 6) was 20.5%, the “percentage TNF+ NK cells” value ([3]; Trial 6) was 4.34% and the “percentage of IFNG+ NK cells” value ([3]; Trial 6) was 10.9%. The “HLA-E surface expression stability (GeoMFI)” value ([4]; Trial 1) was 3203 GeoMFI, the “HLA-E surface expression stability (GeoMFI)” value ([4]; Trial 2) was 3535 GeoMFI and the “HLA-E surface expression stability (GeoMFI)” value ([4]; Trial 3) was 3903 GeoMFI. For the same sequence, the “HLA-E surface expression stability (GeoMFI)” value ([4]; Trial 4) was 4464 GeoMFI.
